In the supplement of paper PMC10307832:

Columns and labels:
Test in all cases: relative viability (nuclei count vs DMSO), 5 days (fraction); higher = more cells survive
RAF265 + Olaparib = compound: Cn1c(Nc2ccc(C(F)(F)F)cc2)nc2cc(Oc3ccnc(-c4ncc(C(F)(F)F)[nH]4)c3)ccc21 [RAF265] + O=C(c1cc(Cc2n[nH]c(=O)c3ccccc23)ccc1F)N1CCN(C(=O)C2CC2)CC1 [Olaparib] (partner 8 µM)
Summary of the method: (§1)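 After 5 days of treatment, lung cancer cells in 1536-well plates were fixed and stained in a single step (final 0.05% Triton X-100, 1% formaldehyde, 1 ug/ml Hoechst) and their nuclei counted on 4× images. Treatment had been applied by pin tool the day after seeding as one drug alone or as a fixed anchor-drug dose with five library-drug doses (not always all listed) in √10 steps. Relative viability is the nuclei count of treated wells divided by that of vehicle wells, and values are medians of duplicate plates.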

RAF265 + Phenformin = compound: Cn1c(Nc2ccc(C(F)(F)F)cc2)nc2cc(Oc3ccnc(-c4ncc(C(F)(F)F)[nH]4)c3)ccc21 [RAF265] + N=C(N)NC(=N)NCCc1ccccc1 [Phenformin] (partner 250 µM)
Summary of the method: as §1

IPA-3 + Crizotinib = compound: C1=CC=C2C(=C1)C=CC(=C2SSC3=C(C=CC4=CC=CC=C43)O)O [IPA-3] + C[C@@H](Oc1cc(-c2cnn(C3CCNCC3)c2)cnc1N)c1c(Cl)ccc(F)c1Cl [Crizotinib] (partner 1 µM)
Summary of the method: as §1

[1] = compound: Cc1ccc(-n2nc(C(C)(C)C)cc2NC(=O)Nc2ccc(OCCN3CCOCC3)c3ccccc23)cc1 [Doramapimod] + CC(=O)c1c(C)c2cnc(Nc3ccc(N4CCNCC4)cn3)nc2n(C2CCCC2)c1=O [Palbociclib] (partner 0.5 µM)
Summary of the method: as §1

Q: With UMC-11 as the cell line, how does the relative viability (RAF265 + Olaparib; first compound 0.01 µM) read?
A: 0.408

Q: What about the relative viability (RAF265 + Olaparib; first compound 0.03162 µM) of the same cell line?
A: 0.368

Q: What about the relative viability (RAF265 + Olaparib; first compound 0.1 µM) of the same cell line?
A: 0.966

Q: And the relative viability (RAF265 + Olaparib; first compound 0.3162 µM)?
A: 0.31

Q: What about the relative viability (RAF265 + Olaparib; first compound 1 µM) of the same cell line?
A: 0.329

Q: What about the relative viability (RAF265 + Phenformin; first compound 0.01 µM) of the same cell line?
A: 0.354

Q: And the relative viability (RAF265 + Phenformin; first compound 0.03162 µM)?
A: 0.332

Q: And the relative viability (RAF265 + Phenformin; first compound 0.1 µM)?
A: 0.32

Q: What about the relative viability (RAF265 + Phenformin; first compound 0.3162 µM) of the same cell line?
A: 0.318

Q: What about the relative viability (RAF265 + Phenformin; first compound 1 µM) of the same cell line?
A: 0.259

Q: What about the relative viability (IPA-3 + Crizotinib; first compound 0.2 µM) of the same cell line?
A: 0.605

Q: And the relative viability (IPA-3 + Crizotinib; first compound 0.6325 µM)?
A: 0.524

Q: What about the relative viability (IPA-3 + Crizotinib; first compound 2 µM) of the same cell line?
A: 0.798

Q: What about the relative viability (IPA-3 + Crizotinib; first compound 6.325 µM) of the same cell line?
A: 0.579

Q: What about the relative viability (IPA-3 + Crizotinib; first compound 20 µM) of the same cell line?
A: 0.673

Q: What about the relative viability ([1]; first compound 0.02 µM) of the same cell line?
A: 0.342

Q: And the relative viability ([1]; first compound 0.06325 µM)?
A: 0.328

Q: What about the relative viability ([1]; first compound 0.2 µM) of the same cell line?
A: 0.313

Q: And the relative viability ([1]; first compound 0.6325 µM)?
A: 0.323

Q: And the relative viability ([1]; first compound 2 µM)?
A: 0.308
